From BindingDB's records for doi:10.1016/S0960-894X(01)80539-4 (1994)

target: Sigma-1 receptor (Cavia porcellus); assay: In vitro binding affinity towards sigma receptor by the displacement of [3H]PPP from guinea pig brain

First: OC(CCCN1CCN(c2ncc(F)cn2)CC1)c1ccc(F)c2ccccc12 (configuration not stated) [1-(4-Fluoro-naphthalen-1-yl)-4-[4-(5-fluoro-pyrimidin-2-yl)-piperazin-1-yl]-butan-1-ol]
Second: NC(CCCN1CCN(c2ncc(F)cn2)CC1)c1ccc(F)c2ccccc12 (configuration not stated) [1-(4-Fluoro-naphthalen-1-yl)-4-[4-(5-fluoro-pyrimidin-2-yl)-piperazin-1-yl]-butylamine]
The IC50 of the first is 2.4-fold lower: 88 nM for the first, 215 nM for the second.

Compared with `OC(CCCN1CCN(c2ncc(F)cn2)CC1)C1CCCCC1` (configuration not stated) [1-Cyclohexyl-4-[4-(5-fluoro-pyrimidin-2-yl)-piperazin-1-yl]-butan-1-ol], `NC(CCCN1CCN(c2ncc(F)cn2)CC1)C1CCCCC1` (configuration not stated) [1-Cyclohexyl-4-[4-(5-fluoro-pyrimidin-2-yl)-piperazin-1-yl]-butylamine] is 4.3-fold higher in IC50: 12 nM for the first, 52 nM for the second.

`O=C(NC(CCCN1CCN(c2ncc(F)cn2)CC1)c1ccc(F)cc1)c1ccc(F)cc1` (configuration not stated) [4-Fluoro-N-{1-(4-fluoro-phenyl)-4-[4-(5-fluoro-pyrimidin-2-yl)-piperazin-1-yl]-butyl}-benzamide] and `CC(=O)NC(CCCN1CCN(c2ncc(F)cn2)CC1)c1ccc(F)cc1` (configuration not stated) [N-{1-(4-Fluoro-phenyl)-4-[4-(5-fluoro-pyrimidin-2-yl)-piperazin-1-yl]-butyl}-acetamide] cannot be ordered by IC50: greater than 100 nM for the first, greater than 49 nM for the second.

Going from `O=S(=O)(CCCN1CCN(c2ncc(F)cn2)CC1)c1ccc(F)cc1` [5-Fluoro-2-{4-[3-(4-fluoro-benzenesulfonyl)-propyl]-piperazin-1-yl}-pyrimidine] to `Fc1ccc(CCCCN2CCN(c3ncc(F)cn3)CC2)cc1` [5-Fluoro-2-{4-[4-(4-fluoro-phenyl)-butyl]-piperazin-1-yl}-pyrimidine], the IC50 falls from greater than 45 nM to 23 nM. The second is the more potent here.

Compared with `Fc1ccc(OCCCN2CCN(c3ncc(F)cn3)CC2)cc1` [5-Fluoro-2-{4-[3-(4-fluoro-phenoxy)-propyl]-piperazin-1-yl}-pyrimidine], `Fc1ccc(SCCCN2CCN(c3ncc(F)cn3)CC2)cc1` [5-Fluoro-2-{4-[3-(4-fluoro-phenylsulfanyl)-propyl]-piperazin-1-yl}-pyrimidine] is 1.7-fold lower in IC50: 89 nM for the first, 51 nM for the second. The second is the more potent here.

`O=C(OC(CCCN1CCN(c2ncc(F)cn2)CC1)c1ccc(F)cc1)c1ccccc1` (configuration not stated) [Benzoic acid 1-(4-fluoro-phenyl)-4-[4-(5-fluoro-pyrimidin-2-yl)-piperazin-1-yl]-butyl ester] and `O=C(NC(CCCN1CCN(c2ncc(F)cn2)CC1)C1CCCCC1)c1ccc(F)cc1` (configuration not stated) [N-{1-Cyclohexyl-4-[4-(5-fluoro-pyrimidin-2-yl)-piperazin-1-yl]-butyl}-4-fluoro-benzamide] cannot be ordered by IC50: 3500 nM for the first, greater than 2 nM for the second.
